Measured values as given in patent publication US8524705B2, “2-oxo-2-(2-phenyl-5,6,7,8-tetrahydro-indolizin-3-yl)-acetamide derivatives and related compounds as antifungal agents” (F2G Limited British Body Corporate, priority 2007, dated 2013).
In brackets after ≈: the same amount, converted by molar mass.

Legend:
Assay type in all cases: cell-based
Conditions in all cases: banded into grades
Aspergillus terreus AT4 = experiment: Measurement of Minimum Inhibitory Concentrations (MICs), A. terreus
Description: (§1) Between 1 and 5 mgs of compound were accurately weighed out into a sterile Eppendorf tube. The compound was dissolved in DMSO to give a solution containing 5 mg/mL. Tubes were stored at −20° C. until required. On the day of testing thawed solutions were vortex mixed to ensure homogeneity. 30 μL of solution was removed and added to 570 μL of sterile water in a separate sterile Eppendorf. The thoroughly mixed solution was used to prepare a series of doubling dilutions in water, in a deep well plate. […] replicate plates were prepared using a Minitrak by aspirating […] from each well into eleven clear polystyrene 96 well plates. Spores of Aspergillus spp. (Aspergillus fumigatus [two strains], Aspergillus terreus [two strains], Aspergillus niger and Aspergillus flavus) were harvested from cultures grown on Sabarauds agar for 5 days, and resuspended in PBS/Tween 80 to approx 1×10^7 cfu/mL. Each organism suspension was diluted in YAG medium (1% glucose, 1% ammonium chloride and 0.5% yeast extract) to 0.5-2×10^4 cfu/mL. 80 μL of an organism suspension was added to each well of the plate containing drug dilutions. This produced MIC plates with a drug range 50-0.05 mg/L and organism inocula of 1−2×10^4 cfu/mL for Aspergillus spp. All plates were incubated for 24 hrs at 35° C. Growth was assessed by monitoring the optical density at 485 nm for each well. The MIC of a compound is the lowest drug concentration that inhibits growth of an organism by >70% compared with a drug free control. MICs are recorded as mg/L. In cases where the MIC of an organism is >=0.05 mg/L the MIC is repeated using a concentration range of 0.5-0.0005 mg/L. Other growth media can be used for susceptibility testing, and the activity of the described compounds was also assessed in RPMI medium containing 2% glucose, and 0.135M MOPS buffer. MIC tests in YAG medium have more clear-cut endpoints and have slightly lower MICs than those performed in RPMI medium. The following organisms were tested: Aspergillus flavus, Aspergillus fumigatus AF293 and AF210, Aspergillus niger and Aspergillus terreus AT4 and AT49.

Aspergillus flavus = experiment: Measurement of Minimum Inhibitory Concentrations (MICs), A. flavus
Description: as §1

Aspergillus niger = experiment: Measurement of Minimum Inhibitory Concentrations (MICs), A. niger
Description: as §1

Aspergillus terreus AT49 = experiment: Measurement of Minimum Inhibitory Concentrations (MICs), A. terreus 49
Description: as §1

[1] = tested on: Aspergillus fumigatus AF293; experiment: Measurement of Minimum Inhibitory Concentrations (MICs), A. fumigatus
Description: as §1

[2] = tested on: Aspergillus fumigatus AF210; experiment: Measurement of Minimum Inhibitory Concentrations (MICs), A. fumigatus 210
Description: as §1

[3] = RPMI medium containing 2% glucose, 0.135M MOPS buffer
[4] = YAG medium, 24 hrs at 35° C., >70% growth inhibition

Structure (SMILES)	MIC (Aspergillus terreus AT4; [3]) [µg/mL]	MIC (Aspergillus terreus AT4; [4]) [µg/mL]	MIC (Aspergillus flavus; [3]) [µg/mL]	MIC (Aspergillus flavus; [4]) [µg/mL]	MIC (Aspergillus niger; [3]) [µg/mL]	MIC (Aspergillus niger; [4]) [µg/mL]	MIC (Aspergillus terreus AT49; [3]) [µg/mL]	MIC (Aspergillus terreus AT49; [4]) [µg/mL]	MIC [1, 3] [µg/mL]	MIC [1, 4] [µg/mL]	MIC [2, 3] [µg/mL]	MIC [2, 4] [µg/mL]
C=C(C)CN1CCN(c2ccc(NC(=O)C(=O)c3c(-c4ccccc4)cc4n3CCCC4)cc2)CC1 [Example 1, N-{4-[4(2-methyl-allyl)-piperazin-1-yl]-phenyl}-2-oxo-2-(2-phenyl-5,6,7,8-tetrahydro-indolizin-3-yl)-acetamide]	< 1	< 1	< 1	< 1	< 1	< 1	< 1	< 1	< 1	< 1	< 1	< 1
CC(C)(C)CN1CCN(c2ccc(NC(=O)C(=O)c3c(-c4ccccc4)cc4n3CCCC4)cc2)CC1 [Example 2, N-{4-[4-(2,2-dimethyl-propyl)-piperazin-1-yl]-phenyl}-2-oxo-2-(2-phenyl-5,6,7,8-tetrahydro-indolizin-3-yl)-acetamide]	< 1	< 1	< 1	< 1	< 1	< 1	< 1	< 1	< 1	< 1	< 1	< 1
Cc1cc(C)nc(N2CCN(c3ccc(NC(=O)C(=O)c4c(C5CCCC5)cc5n4CCCC5)cc3)CC2)c1 [Example 4, 2-(2-cyclopentyl-5,6,7,8-tetrahydro-indolizin-3-yl)-N-{4-[4-(4,6-dimethyl-pyridin-2-yl)-piperazin-1-yl]-phenyl}-2-oxo-acetamide]	< 1	< 1	< 1	< 1	< 1	< 1	< 1	< 1	< 1	< 1	< 1	< 1
Cc1cc(C)nc(N2CCN(c3ccc(N(C)C(=O)C(=O)c4c(-c5ccccc5)cc5n4CCCC5)cc3)CC2)c1 [Example 6, N-{4-[4-(4,6-dimethyl-pyridin-2-yl)-piperazin-1-yl]-phenyl}-N-methyl-2-oxo-2-(2-phenyl-5,6,7,8-tetrahydro-indolizin-3-yl)-acetamide]	> 10	> 10	> 10	> 10	> 10	> 10	> 10	1 to 10 (≈ 1.83 to 18.3 µM)	> 10	1 to 10 (≈ 1.83 to 18.3 µM)	> 10	1 to 10 (≈ 1.83 to 18.3 µM)
Cc1cc(C)nc(N2CCN(c3ccc(NC(=O)C(=O)c4c(C5CCOCC5)cc5n4CCCC5)cc3)CC2)c1 [Example 10, N-{4-[4-(4,6-Dimethyl-pyridin-2-yl)-piperazin-1-yl]-phenyl}-2-oxo-2-[2-(tetrahydro-pyran-4-yl)-5,6,7,8-tetrahydro-indolizin-3-yl]-acetamide]	< 1	< 1	< 1	< 1	< 1	< 1	< 1	< 1	< 1	< 1	< 1	< 1
Cc1cc(C)nc(N2CCN(c3ccc(NC(=O)C(=O)c4c(C5CCN(C)CC5)cc5n4CCCC5)cc3)CC2)c1 [Example 11, N-{4-[4-(4,6-Dimethyl-pyridin-2-yl)-piperazin-1-yl]-phenyl}-2-[2-(1-methyl-piperidin-4-yl)-5,6,7,8-tetrahydro-indolizin-3-yl]-2-oxo-acetamide]	> 10	> 10	> 10	> 10	> 10	> 10	> 10	> 10	> 10	> 10	> 10	> 10
O=C(NC1CCN(c2ccccc2)CC1)C(=O)c1c(-c2ccccc2)cc2n1CCCC2 [Example 12, 2-Oxo-N-(1-phenyl-piperidin-4-yl)-2-(2-phenyl-5,6,7,8-tetrahydro-indolizin-3-yl)-acetamide]	1 to 10 (≈ 2.34 to 23.4 µM)	< 1	> 10	> 10	1 to 10 (≈ 2.34 to 23.4 µM)	< 1	1 to 10 (≈ 2.34 to 23.4 µM)	< 1	1 to 10 (≈ 2.34 to 23.4 µM)	< 1	1 to 10 (≈ 2.34 to 23.4 µM)	< 1

Next, values leading:

MIC (Aspergillus terreus AT4; [3]) [µg/mL]	MIC (Aspergillus terreus AT4; [4]) [µg/mL]	MIC (Aspergillus flavus; [3]) [µg/mL]	MIC (Aspergillus flavus; [4]) [µg/mL]	MIC (Aspergillus niger; [3]) [µg/mL]	MIC (Aspergillus niger; [4]) [µg/mL]	MIC (Aspergillus terreus AT49; [3]) [µg/mL]	MIC (Aspergillus terreus AT49; [4]) [µg/mL]	MIC [1, 3] [µg/mL]	MIC [1, 4] [µg/mL]	MIC [2, 3] [µg/mL]	MIC [2, 4] [µg/mL]	Structure (SMILES)
< 1	< 1	< 1	< 1	< 1	< 1	< 1	< 1	< 1	< 1	< 1	< 1	Cc1cc(C)nc(N2CCN(c3ccc(NC(=O)C(=O)c4c(-c5ccccc5)cc5n4CCCC5)cc3)CC2)c1 [Example 3, N-{4-[4-(4,6-dimethyl-pyridin-2-yl)-piperazin-1-yl]-phenyl}-2-oxo-2-(2-phenyl-5,6,7,8-tetrahydro-indolizin-3-yl)-acetamide]
< 1	< 1	< 1	< 1	< 1	< 1	< 1	< 1	< 1	< 1	< 1	< 1	Cc1cc(C)nc(N2CCCN(c3ccc(NC(=O)C(=O)c4c(-c5ccccc5)cc5n4CCCC5)cc3)CC2)c1 [Example 5, N-{4-[4-(4,6-dimethyl-pyridin-2-yl)-[1,4]diazepan-1-yl]-phenyl}-2-oxo-2-(2-phenyl-5,6,7,8-tetrahydro-indolizin-3-yl)-acetamide]
< 1	< 1	< 1	< 1	< 1	< 1	< 1	< 1	< 1	< 1	< 1	< 1	Cc1cc(C)nc(N(C)CCN(C)c2ccc(NC(=O)C(=O)c3c(-c4ccccc4)cc4n3CCCC4)cc2)c1 [Example 7, N-[4-({2-[(4,6-Dimethyl-pyridin-2-yl)-methyl-amino]-ethyl}-methyl-amino)-phenyl]-2-oxo-2-(2-phenyl-5,6,7,8-tetrahydro-indolizin-3-yl)-acetamide]
< 1	< 1	1 to 10 (≈ 1.82 to 18.2 µM)	< 1	1 to 10 (≈ 1.82 to 18.2 µM)	1 to 10 (≈ 1.82 to 18.2 µM)	< 1	< 1	< 1	< 1	1 to 10 (≈ 1.82 to 18.2 µM)	< 1	COc1cc(C)nc(N2CCN(c3ccc(NC(=O)C(=O)c4c(-c5ccccc5)cc5n4CCCC5)cc3)CC2)c1 [Example 8, N-{4-[4-(4-Methoxy-6-methyl-pyridin-2-yl)-piperazin-1-yl]-phenyl}-2-oxo-2-(2-phenyl-5,6,7,8-tetrahydro-indolizin-3-yl)-acetamide]
< 1	< 1	< 1	< 1	< 1	< 1	< 1	< 1	< 1	< 1	< 1	< 1	Cc1cc(C)nc(OCCOc2ccc(NC(=O)C(=O)c3c(-c4ccccc4)cc4n3CCCC4)cc2)c1 [Example 9, N-{4-[2-(4,6-Dimethyl-pyridin-2-yloxy)-ethoxy]-phenyl}-2-oxo-2-(2-phenyl-5,6,7,8-tetrahydro-indolizin-3-yl)-acetamide]
< 1	< 1	< 1	< 1	< 1	< 1	< 1	< 1	< 1	< 1	< 1	< 1	COc1cc(C)cc(N2CCN(c3ccc(NC(=O)C(=O)c4c(-c5ccccc5)cc5n4CCCC5)cc3)CC2)n1 [Example 13, N-{4-[4-(6-Methoxy-4-methyl-pyridin-2-yl)-piperazin-1-yl]-phenyl}-2-oxo-2-(2-phenyl-5,6,7,8-tetrahydro-indolizin-3-yl)-acetamide]
< 1	1 to 10 (≈ 1.96 to 19.6 µM)	> 10	1 to 10 (≈ 1.96 to 19.6 µM)	1 to 10 (≈ 1.96 to 19.6 µM)	1 to 10 (≈ 1.96 to 19.6 µM)	< 1	< 1	1 to 10 (≈ 1.96 to 19.6 µM)	1 to 10 (≈ 1.96 to 19.6 µM)	1 to 10 (≈ 1.96 to 19.6 µM)	1 to 10 (≈ 1.96 to 19.6 µM)	Cc1cc(OCCOc2ccc(NC(=O)C(=O)c3c(-c4ccccc4)cc4n3CCCC4)cc2)cc(C)n1 [Example 14, N-{4-[2-(2,6-Dimethyl-pyridin-4-yloxy)-ethoxy]-phenyl}-2-oxo-2-(2-phenyl-5,6,7,8-tetrahydro-indolizin-3-yl)-acetamide]
